Data set [1] relates to rats. The data set can be described thus: Acute toxicity with intravenous administration, rats. The data set is classed as in vivo, S.D. strain rats. The following applies: 14 days. On the procedure: (§1) In this Example, the acute toxicity with intravenous administration of the non-radioactive labeling composition to rats or mice was evaluated. Namely, sterilized, pyrogen-free and oxygen-free water (1.0 ml) was added to a vial containing "FDSn-RBC" to make a stannous chloride solution (20 μmol/ml, […]). The resultant solution was intravenously administered to male and female ICR strain mice and S.D. strain rats. After 14 days, the accumulative death percentage was determined, and the lethal dose 50 (LD50) was calculated by the Litchfield-Wilcoxon's method.
The dose of the non-radioactive labeling composition to human beings may be 9.48 μg/kg (with the assumption that a total amount of one vial of FDSn-COL is administered to a person of 60 kilograms in bodyweight) as stannous chloride at the maximum in case of using for preparation of ^99m Tc-labeled tin colloid, and 31.95 μg/kg (corresponding to 20 μg/kg of stannous ion) in case of using for labeling of red blood cells in a human body. When these doses are compared with the LD50 values of female rats which are considered to be the most sensitive among the tested animals, said dose is about 1/1790 that of the LD50 value in case of preparation of ^99m Tc-labeled tin colloid and about 1/530 that of the LD50 value in case of labeling of red blood cells in a human being.

Data set [2] has as its system mice. The data set can be described thus: Acute toxicity with intravenous administration, mice. It counts as in vivo, ICR strain mice. Particulars: 14 days. As for the experimental part: as §1

This passage reports LD50 results from patent publication US5096693A, “Stable stannous chloride composition for labeling with radioactive technetium” (Nihon Medi-Physics Co., Ltd., priority 1984, dated 1992).

Molecules are shown by their SMILES.

For `[Cl][Sn][Cl]` [stannous chloride], the 50% lethal dose (LD50) in data set [1] (female rats) is 17 ± 2 mg/kg; in data set [1] (male rats) it was 18 ± 3 mg/kg; in data set [2] (female mice), 28 ± 3 mg/kg; in data set [2] (male mice), 33 ± 3 mg/kg.

For orientation: LD50 means the dose at which mortality reaches 50%. High values mean a less toxic substance, low ones a more toxic substance.
